Tests used:
[1] = biological target: T1, Apoptosis regulator Bcl-2 (Homo sapiens, UniProt P10415); assay: Displacement of fluorescein labelled Puma-BH3 peptide from human BCl2 expressed in Escherichia coli BL21 (DE3) pLysS cells incubated for 2 hrs by fluorescence polarization assay
[2] = biological target: T2, Induced myeloid leukemia cell differentiation protein Mcl-1 (Homo sapiens, UniProt Q07820); assay: Displacement of fluorescein labelled Puma-BH3 peptide from His-tagged-TEV fused human Mcl-1 incubated for 2 hrs by fluorescence polarization assay
T2 sequence (Q07820 whole entry, the tested form may be a part): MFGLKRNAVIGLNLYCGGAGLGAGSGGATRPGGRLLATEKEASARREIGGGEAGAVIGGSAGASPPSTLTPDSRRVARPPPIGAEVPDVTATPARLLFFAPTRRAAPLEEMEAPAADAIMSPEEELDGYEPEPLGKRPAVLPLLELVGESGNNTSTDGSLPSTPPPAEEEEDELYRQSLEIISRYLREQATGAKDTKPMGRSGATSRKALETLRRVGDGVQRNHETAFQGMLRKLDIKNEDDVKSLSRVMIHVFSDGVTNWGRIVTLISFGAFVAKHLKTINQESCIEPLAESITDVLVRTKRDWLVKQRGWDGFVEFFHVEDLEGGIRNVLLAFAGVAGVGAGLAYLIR

[3] = biological target: T1, Apoptosis regulator Bcl-2; assay: Inhibition of wild-type BCL-2 (unknown origin) expressed in Escherichia coli BL21 cells using biotinylated BIMBH3 or BAXBH3 peptide by surface plasmon resonance assay
[4] = biological target: T1, Apoptosis regulator Bcl-2; assay: Inhibition of human BCl2 expressed in Escherichia coli BL21 (DE3) pLysS cells by surface plasmon resonance assay
[5] = Inhibition of human GST-tagged BCL-XL deltaC25 mutant using biotinylated BIM 26-mer peptide as substrate incubated for 30 mins by AlphaScreen assay
[6] = biological target: T2, Induced myeloid leukemia cell differentiation protein Mcl-1
[7] = Inhibition of human GST-tagged BCL-XL deltaC24 mutant using BIMBH3 mutant peptide as substrate by SPR assay
[8] = biological target: T2, Induced myeloid leukemia cell differentiation protein Mcl-1; assay: Inhibition of TAMRA-labeled BIM BH3 peptide binding to human Mcl1 (171 to 327 residues) incubated for 120 mins by fluorescence polarization
[9] = biological target: T1, Apoptosis regulator Bcl-2; assay: Inhibition of Bcl-2 (unknown origin) by fluorescence polarization assay

T1 sequence (P10415 whole entry, the tested form may be a part): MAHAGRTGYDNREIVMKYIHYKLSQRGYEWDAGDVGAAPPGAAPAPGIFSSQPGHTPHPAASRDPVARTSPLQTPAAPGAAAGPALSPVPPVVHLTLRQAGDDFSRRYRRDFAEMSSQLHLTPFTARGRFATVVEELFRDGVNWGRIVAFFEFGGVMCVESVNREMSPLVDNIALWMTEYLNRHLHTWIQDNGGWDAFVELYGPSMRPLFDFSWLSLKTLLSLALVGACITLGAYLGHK

Compound `COc1cc2c(cc1C(CN1CCCC1)c1ccc(-c3ccc(C(=O)NS(=O)(=O)c4ccc(C[C@H](CCN5CCOCC5)CSc5ccccc5)c(S(=O)(=O)C(F)(F)F)c4)cc3)cc1)OCO2` (some centres undefined) has an IC50 [1] of 20 nM.
`CCc1sc2ncnc(N[C@@H](CO)C(=O)O)c2c1-c1ccccc1` gave an IC50 [2] of 520000 nM.
`NC[C@@H]1Cc2ccccc2CN1C(=O)c1cc2c(cc1-c1cc(C(=O)N(c3ccccc3)c3ccc(O)cc3)c3n1CCCC3)OCO2` showed a Ki [3] of 0.36 nM.
With `CC[C@H](C)[C@H](NC(=O)[C@H](CCC(=O)O)NC(=O)[C@H](CCCNC(=N)N)NC(=O)[C@H](C)NC(=O)[C@H](Cc1c[nH]c2ccccc12)NC(=O)[C@H](CCC(N)=O)NC(=O)[C@H](CCC(=O)O)NC(=O)[C@@H](N)CCC(=O)O)C(=O)NCC(=O)N[C@@H](C)C(=O)N[C@@H](CCC(N)=O)C(=O)N[C@@H](CC(C)C)C(=O)N[C@@H](CCCNC(=N)N)C(=O)N[C@@H](CCCNC(=N)N)C(=O)N[C@@H](CCSC)C(=O)N[C@@H](C)C(=O)N[C@@H](CC(=O)O)C(=O)N[C@@H](CC(=O)O)C(=O)N[C@@H](CC(C)C)C(=O)N[C@@H](CC(N)=O)C(=O)N[C@@H](C)C(=O)N[C@@H](CCC(N)=O)C(=O)N[C@@H](Cc1ccc(O)cc1)C(=O)N[C@@H](CCC(=O)O)C(=O)N[C@@H](CCCNC(=N)N)C(=O)O` the IC50 [4] was 3.3 nM.
`O=C(O)c1nc(-c2ccc3c(c2)/C(=N/Nc2nc4ccccc4s2)CCC3)sc1CCCCc1ccccc1` gave an IC50 [5] of 24 nM.
`Cc1ccccc1-c1cccc2c(CCCOc3cccc4ccccc34)c(C(=O)O)[nH]c12` showed an IC50 [6] of 1100 nM.
With `Cc1n[nH]c(C)c1-c1cccc2c(CCCOc3cccc4ccccc34)c(C(=O)O)[nH]c12` the IC50 [2] was 100 nM.
In the case of `CCCCN(CCCC)C(=O)c1cc(C)n(-c2ccccc2C(=O)N2Cc3ccccc3C[C@H]2CN)n1`, the IC50 [1] is reported as 1300 nM.
Compound `CN(C)CC[C@H](CSc1ccccc1)Nc1ccc(S(=O)(=O)NC(=O)c2ccc(N3CCN(Cc4ccccc4-c4ccccc4)CC3)cc2)cc1[N+](=O)[O-]` has an IC50 [7] of 11 nM.
For `O=C1NS(=O)(=O)CCOCCCCCCN2C[C@@]3(CCCc4cc(Cl)ccc43)COc3ccc1cc32`, the IC50 [8] was 10 nM.
In the case of `O=C(NS(=O)(=O)c1ccc(NC2CCOCC2)c([N+](=O)[O-])c1)c1ccc(N2CCN(CC3=C(c4ccc(Cl)cc4)COCC3)CC2)cc1`, the Ki [9] is reported as 59 nM.
In the case of `C[N+](C)(CC[C@H](CSc1ccccc1)Nc1ccc(S(=O)(=O)NC(=O)c2ccc(N3CCN(Cc4ccccc4-c4ccc(Cl)cc4)CC3)cc2)cc1[N+](=O)[O-])CC(=O)O`, the IC50 [1] is reported as 500 nM.
With `C/C(=N\Nc1nc2ccccc2s1)c1ccc(-c2ccc(S(=O)(=O)NC(=O)CCCCCc3ccccc3)cc2)o1` the IC50 [5] was 770 nM.

Source: ChEMBL document CHEMBL4376822, “Hot-Spots of Mcl-1 Protein” (J Med Chem, 2020)
